These results are taken from US11993573B2, “Chromane-substituted, tetrahydroquinoline-substituted and thiochromane-substituted heteroarotinoids as anti-cancer agents” (THE BOARD OF REGENTS FOR OKLAHOMA STATE UNIVERSITY, priority 2018, dated 2024).

Molecules are shown by their SMILES. Read-outs that look alike come from different tables or passages of the source.

Data set [1] deals with human ovarian cancer cell line A2780. Kind of data set: Growth inhibition assay (CellTiter 96 Non-Rad Cell Proliferation Assay). It is filed as cell-based. To be noted: for IC50 / Emax: Homo sapiens; for efficacy compared with SHetA2 / IC50 compared with SHetA2: comparison in words; for IC50 compared with SHetA2: 'exceeded' = lower IC50 in Table 1. As for the experimental part:
To illustrate the general activity of the compounds inhibiting growth of human […] ovarian cancer cells, selected compounds were synthesized and evaluated. The compounds were dissolved in DMSO at a concentration of 0.01 M. The human ovarian cancer cell line A2780 was plated in 96-well tissue culture dishes at a concentration of 3000 cells per well in RPMI medium supplemented with 10% fetal bovine serum and a mixture of antibiotics and antimycotics. The next day, the cultures were treated in triplicate with compound concentrations ranging from 2 μM to 8 μM increments. For compound 12, additional experiments were performed with concentrations of 10 μM and a series of two-fold dilutions to 156 nM. Control cultures were treated with DMSO solvent only. After 72 h of incubation, the […] 96® Non-Rad Cell Proliferation Assay (Promega) was used to quantify the remaining metabolically living cells. After subtracting blank values, the optical density (OD) readouts of the assay for the treated cultures were normalized with the average OD of the control cultures. For each compound, the experiment was repeated at least once, resulting in a minimum of 6 dose-response curves. For SHetA2, 24 response curves were available for statistical fitting parameters. A custom program was written in GNU Octave, a free software compatible with Matlab, to fit the dose-response curves with a four-parameter sigmoid function, extracting the IC50 and efficacy (the maximal % growth inhibition) parameters.
To illustrate the useful biological activity of these chroman-substituted and tetrahydroquinoline-substituted heteroarotinoids, the compounds were screened against human […] ovarian cancer cells.

The conditions of data set [2]: SHetA2, background; cited from earlier work.
The test system of data set [3] is 60 cancer cell lines available from the National Cancer Institute. To be noted: SHetA2, background; cited from earlier work.
The mark [4] stands for this setting: A2780, 72 h, Table 1, chroman-containing series.
[5] abbreviates: A2780, 72 h, Table 1, maximal % growth inhibition, A2780, 72 h, read-out: Efficacy.
Where [6] appears, read: A2780, 72 h, Table 2, tetrahydroquinoline-containing members.
Setting [7] is: A2780, 72 h, Table 2, maximal % growth inhibition, A2780, 72 h, read-out: Efficacy.

With `CC1(C)CCOc2ccc(NC(=O)Nc3ccc(OC(F)(F)F)cc3)cc21` [Compound 5c, 1-(4,4-Dimethylchroman-6-yl)-3-(4-(trifluoromethoxy)phenyl)urea], the melting point was in the range of 230 to 231 °C. In data set [1] (setting [4]), this molecule had a half-maximal inhibitory concentration (IC50) of 3.5 µM. For the same molecule, in data set [1] (setting [5]), the Emax is 36%.

`CN1c2ccc(NC(=O)Nc3ccc(OC(F)(F)F)cc3)cc2C(C)(C)C(O)C1(C)C` (stereo not drawn) [Compound 13e, 1-(3-Hydroxy-1,2,2,4,4-pentamethyl-1,2,3,4-tetrahydroquinolin-6-yl)-3-(4-(trifluoromethoxy)phenyl)urea]: the melting point was in the range of 188 to 189 °C. Also, 7.8 µM corresponded to half-maximal inhibition in data set [1] (setting [6]) (IC50). Further, the Emax in data set [1] (setting [7]) stood at 23.6%.

As to `CC1(C)CCNc2ccc(NC(=O)Nc3ccc([N+](=O)[O-])cc3)cc21` [Compound 9a, 1-(4,4-Dimethyl-1,2,3,4-tetrahydroquinolin-6-yl)-3-(4-nitrophenyl)urea], the melting point fell in the range of 219 to 220 °C. The molecule also registered an IC50 in data set [1] (setting [6]) of 6.9 µM. In data set [1] (setting [7]), the Emax worked out at 17.1%.

For `CC1(C)CCNc2ccc(NC(=S)Nc3ccc(OC(F)(F)F)cc3)cc21` [Compound 9d, 1-(4,4-Dimethyl-1,2,3,4-tetrahydroquinolin-6-yl)-3-(4-(trifluoromethoxy)phenyl)thiourea], the melting point was in the range of 69 to 71 °C. Moreover, the IC50 in data set [1] (setting [6]) came out at 7.1 µM. Moreover, the Emax in data set [1] (setting [7]) stood at 24%.

Consider `CCC1(CC)CC(C)(C)Oc2ccc(NC(=O)Nc3ccc(C(F)(F)F)cc3)cc21` [Compound 7d, 1-(4,4-Diethyl-2,2-dimethylchroman-6-yl)-3-(4-(trifluoromethyl)phenyl)urea], for which the melting point is 225 to 226 °C. The molecule also had an IC50 in data set [1] (setting [4]) of 2.43 µM. For the same molecule, the Emax in data set [1] (setting [5]) is 93.3%. For the same molecule, in data set [1] (A2780), the “efficacy compared with SHetA2” value was “exceeded the efficacy of SHetA2” and the “IC50 compared with SHetA2” value was “exceeded”.

On to `CC1(C)CC(C)(C)c2cc(NC(=S)Nc3ccc(C(F)(F)F)cc3)ccc2O1` [Compound 2c, 1-(2,2,4,4-Tetramethylchroman-6-yl)-3-(4-(trifluoromethyl)phenyl)thiourea], for which the melting point fell in the range of 166 to 168 °C. In data set [1] (setting [4]), this molecule returned an IC50 of 4.7 µM. Further, the Emax in data set [1] (setting [5]) is 22%.

For `CN1c2ccc(NC(=O)Nc3ccc([N+](=O)[O-])cc3)cc2C(C)(C)C(O)C1(C)C` (stereo not drawn) [Compound 13a, 1-(3-Hydroxy-1,2,2,4,4-pentamethyl-1,2,3,4-tetrahydroquinolin-6-yl)-3-(4-nitrophenyl)urea], the melting point fell in the range of 215 to 217 °C. In data set [1] (setting [6]), this molecule showed an IC50 of 8.4 µM. The Emax in data set [1] (setting [7]) is 26%.

In turn, `CCC1(CC)CC(C)(C)Oc2ccc(NC(=S)Nc3ccc(C(F)(F)F)cc3)cc21` [Compound 7b, 1-(4,4-Diethyl-2,2-dimethylchroman-6-yl)-3-(4-(trifluoromethyl)phenyl)thiourea] returned a melting point of 155 to 156 °C. For the same molecule, the IC50 in data set [1] (setting [4]) came out at 4.7 µM. Also, the Emax in data set [1] (setting [5]) came to 11.8%.

`CN1c2ccc(NC(=O)Nc3ccc(C(F)(F)F)cc3)cc2C(C)(C)C(=O)C1(C)C` [Compound 11c, 1-(1,2,2,4,4-Pentamethyl-3-oxo-1,2,3,4-tetrahydroquinolin-6-yl)-3-(4-(trifluoromethyl)phenyl)urea] came in with a melting point of 198 to 199 °C. In addition, in data set [1] (setting [6]), the IC50 was 2.58 µM. The Emax in data set [1] (setting [7]) came to 90.1%.

Molecule `CN1c2ccc(NC(=S)Nc3ccc([N+](=O)[O-])cc3)cc2C(C)(C)C(=O)C1(C)C` [Compound 11b, 1-(4-Nitrophenyl)-3-(1,2,2,4,4-pentamethyl-3-oxo-1,2,3,4-tetrahydroquinolin-6-yl)thiourea] came in with a melting point of 145 to 147 °C. The molecule also came in with an IC50 in data set [1] (setting [6]) of 4.4 µM. The Emax in data set [1] (setting [7]) was 91.4%.

On to `CC1(C)CC(C)(C)c2cc(NC(=O)Nc3ccc(OC(F)(F)F)cc3)ccc2O1` [Compound 3c, 1-(2,2,4,4-Tetramethylchroman-6-yl)-3-(4-(trifluoromethoxy)phenyl)urea], for which the melting point lay within 219 to 221 °C. The same molecule had an IC50 in data set [1] (setting [4]) of 3.6 µM. Further, in data set [1] (setting [5]), the Emax was 88.4%. Moreover, the “efficacy compared with SHetA2” value in data set [1] (A2780) was “exceeded the efficacy of SHetA2”.

In turn, `CCC1(CC)CC(CC)(CC)c2cc(NC(=O)Nc3ccc(C(F)(F)F)cc3)ccc2O1` [Compound 8c, 1-(2,2,4,4-Tetraethylchroman-6-yl)-3-(4-(trifluoromethyl)phenyl)urea] returned a melting point of 165 to 166 °C. The same molecule had an IC50 in data set [1] (setting [4]) of 2 µM. Moreover, in data set [1] (setting [5]), the Emax was found to be 86.2%. In addition, the “IC50 compared with SHetA2” value in data set [1] (A2780) was “exceeded”.

On to `CC1(C)CC(C)(C)c2cc(NC(=S)Nc3ccc([N+](=O)[O-])cc3)ccc2S1` [SHetA2, reference compound], for which the “birth defects in animal studies” value in data set [2] was “does not cause birth defects”. In addition, in data set [2], the skin irritation result is listed as “no skin irritation”. For the same molecule, the “toxicity toward normal tissues” value in data set [2] is recorded as “essentially no toxicity toward normal tissues”. The IC50 was found to be 3.17 µM in data set [1] (setting [4]); 3.17 µM in data set [1] (setting [6]); 3.17 ± 0.1 µM in data set [1] (A2780, Table 3, 14 series (thiochroman), A2780); 3 µM in data set [1] (A2780, running text, A2780). Also, the Emax in data set [1] (setting [5]) amounted to 84.3%; in data set [1] (setting [7]), 84.3%; in data set [1] (A2780, Table 3, 14 series, A2780, read-out: % Efficacy), 84.3 ± 0.7%. In addition, in data set [3], the “growth inhibition of cancer cell lines” value is recorded as “inhibits the growth of all 60 cancer cell lines”.

Consider `CC1(C)CCOc2ccc(NC(=S)Nc3ccc(C(F)(F)F)cc3)cc21` [Compound 4b, 1-(4,4-Dimethylchroman-6-yl)-3-(4-(trifluoromethyl)phenyl)thiourea], for which the melting point is 147 to 149 °C. In addition, the IC50 in data set [1] (setting [4]) was found to be 5.5 µM. In data set [1] (setting [5]), the Emax turned out to be 28%.

One may read the IC50 as the point on the concentration scale where inhibition reaches its midpoint. For orientation: melting point means the temperature, or range, at which the solid turns liquid.
